Data taken from patent US20150368655A1, “TRANSFORMED EUGLENA AND PROCESS FOR PRODUCING SAME” (OSAKA PREFECTURE UNIVERSITY PUBLIC CORPORATION, priority 2012, published 2015).
In brackets after ≈: the same amount, converted by molar mass.

System: Euglena wild strain
Test: Growth inhibition / drug sensitivity of the Euglena wild strain in KH medium
Type: cell-based, Euglena gracilis
Protocol: Euglena gracilis Klebs Z strain (hereafter, “Euglena wild strain”), which has chloroplasts, was used.
Koren-Hutner medium (KH medium) was used as a heterotrophic medium (Table 1). 150 ml of the KH medium adjusted to a pH of 6.8 was placed in a 500 ml Sakaguchi flask and sterilized by autoclaving at 121° C. for 15 minutes. 1 ml of Euglena that reached the stationary phase by culturing for about 4 to 7 days (10 to 15×10^6 cells/ml) was inoculated into the medium, followed by culture with shaking at 27° C. under continuous light conditions for 24 hours. A plate medium was prepared by adding 1.0%(w/v) of agar powder.
The minimum inhibitory concentration of zeocin for the Euglena wild strain in a medium at a pH of 6.8 was examined. […] The growth inhibition was observed even when the number of cells at the start of culture was relatively large (2.0×10^6 cells/ml in a liquid medium, 2.0×10^6 cells/plate in a plate medium).
The influence of cefotaxime, which is used to remove Agrobacterium, on the growth of Euglena in transformation by the Agrobacterium method was examined. The results reveal that cefotaxime had no influence on the growth of the Euglena wild strain to at least 500 μg/ml (FIG. 8). Thus, a selective medium containing cefotaxime was used.

CN[C@@H]1[C@@H](O)[C@@H](O[C@@H]2[C@@H](O)[C@H](O[C@H]3O[C@H]([C@@H](C)O)[C@@H](O)[C@H](O)[C@H]3N)[C@@H](N)C[C@H]2N)OC[C@]1(C)O [G418]
Growth of the Euglena wild strain (as the concentrations increased (FIGS. 9 and 10)): inhibited the growth

CO/N=C(\C(=O)N[C@@H]1C(=O)N2C(C(=O)O)=C(COC(C)=O)CS[C@H]12)c1csc(N)n1 [cefotaxime]
Influence on the growth of the Euglena wild strain (to at least 500 μg/ml (FIG. 8)): no influence

Cc1c(N)nc([C@H](CC(N)=O)NC[C@H](N)C(N)=O)nc1C(=O)N[C@H](C(=O)N[C@H](C)[C@@H](O)[C@H](C)C(=O)N[C@H](C(=O)NCCC1=N[C@@H](c2nc(C(=O)NCCCCN=C(N)N)cs2)CS1)[C@@H](C)O)[C@@H](O[C@@H]1O[C@@H](CO)[C@@H](O)[C@H](O)[C@@H]1O[C@H]1O[C@H](CO)[C@@H](O)[C@H](OC(N)=O)[C@@H]1O)c1cnc[nH]1 [zeocin]
Minimum inhibitory concentration (growth completely inhibited) (liquid medium, pH of 6.8): 50 µg/mL (≈ 35 µM)
Growth of the Euglena wild strain (medium containing 100 μg/ml of zeocin, liquid medium (FIG. 5) or plate medium (FIG. 6)): almost completely inhibited
Minimum inhibitory concentration (growth nearly inhibited) (plate medium, pH of 6.8): 25 µg/mL (≈ 17.5 µM)
